The conditions of data set [1]: Liquid; for mass density: 101.33 kPa, Pycnometric method; for vapor or sublimation pressure: Ebulliometric method (Recirculating still).
Data set [2] can be described thus: refractive index (Na D-line) (dimensionless). As to conditions: 101.33 kPa, Liquid, Standard Abbe refractometry.

Numbers after ± are expanded uncertainties.

The values that follow come from the NIST ThermoML archive (doi:10.1021/je9000608).

As a reminder, the mass density is the mass of a sample divided by its volume. What is called vapor or sublimation pressure is the pressure of vapour in equilibrium with the condensed phase. Usually refractive index stands for a measure of how strongly the sample bends light.

As to `ClC(Cl)C(Cl)Cl` [1,1,2,2-tetrachloroethane], the mass density in data set [1] (293.15 K) is recorded as 1593 ± 1.8 kg/m3. For the same compound, the “vapor or sublimation pressure” value in data set [1] (417.25 K) is recorded as 95.6 ± 1 kPa. Also, the refractive index in data set [2] (293.15 K) is given as 1.494 ± 0.0008.

For `ClCCCl` [1,2-dichloroethane], the mass density in data set [1] (293.15 K) was 1252.9 ± 1.3 kg/m3. Moreover, the “vapor or sublimation pressure” value in data set [1] (355.15 K) stood at 95.6 ± 1 kPa. Also, the refractive index in data set [2] (293.15 K) is on record as 1.4196 ± 0.0008.

For the compound `CCCCCCO` [hexan-1-ol], the mass density in data set [1] (298.15 K) stood at 815.3 ± 0.8 kg/m3. In addition, in data set [1] (428.45 K), the “vapor or sublimation pressure” value was 95.6 ± 1 kPa. For the same compound, the refractive index in data set [2] (298.15 K) stood at 1.4157 ± 0.0008.

On to `ClC(Cl)=C(Cl)Cl` [tetrachloroethene], for which the mass density in data set [1] (293.15 K) came to 1623 ± 1.8 kg/m3. Moreover, the “vapor or sublimation pressure” value in data set [1] (392.15 K) worked out at 95.6 ± 1 kPa. For the same compound, in data set [2] (293.15 K), the refractive index is on record as 1.5058 ± 0.0008.

With `ClC=C(Cl)Cl` [trichloroethene], the mass density in data set [1] (303.15 K) worked out at 1451.3 ± 1.6 kg/m3. Besides, the “vapor or sublimation pressure” value in data set [1] (358.45 K) was 95.6 ± 1 kPa. The refractive index in data set [2] (303.15 K) is 1.475 ± 0.0008.
